Results from patent publication US7244738B2, “Arylamine-substituted quinazolinone compounds useful as alpha 1A/B adrenergic receptor antagonists” (Roche Palo Alto LLC, priority 2003, dated 2007).

| SMILES | melting point [°C] |
| --- | --- |
| COc1cc2[nH]c(N(C)Cc3cccc(C(C)N(C)S(C)(=O)=O)c3)nc(=O)c2c(C)c1OC (stereo not shown) [Example 26, N-[1-(3-{[(6,7-Dimethoxy-5-methyl-4-oxo-1,4-dihydro-quinazolin-2-yl)-methyl-amino]-methyl}-phenyl)-ethyl]-N-methyl-methanesulfonamide] | 130 to 133.8 |
| CCN(C)CCc1ccc(CN(C)c2nc(=O)c3c(C)c(OC)c(OC)cc3[nH]2)cc1 [Example 28, 2-({4-[2-(Ethyl-methyl-amino)-ethyl]-benzyl}-methyl-amino)-6,7-dimethoxy-5-methyl-1H-quinazolin-4-one] | 172.4 to 173.2 |
| COc1cc2[nH]c(N(C)Cc3ccc(OCCO)cc3)nc(=O)c2c(C)c1OC [Example 31, 2-{[4-(2-Hydroxy-ethoxy)-benzyl]-methylamino}-6,7-dimethoxy-5-methyl-1H-quinazolin-4-one] | 198.5 to 199.5 |
| COc1cc2[nH]c(N(C)Cc3cccc(CN(C)CCO)c3)nc(=O)c2c(C)c1OC [Example 33, 2-[(3-{[(2-Hydroxy-ethyl)-methyl-amino]-methyl}-benzyl)-methyl-amino]-6,7-dimethoxy-5-methyl-1H-quinazolin-4-one] | 123.8 to 125.6 |
| COc1cc2[nH]c(N(C)Cc3ccc4c(c3)CN(C)C4)nc(=O)c2c(C)c1OC [Example 38, 6,7-Dimethoxy-5-methyl-2-[methyl-(2-methyl-2,3-dihydro-1H-isoindol-5-ylmethyl)-amino]-1H-quinazolin-4-one] | 214.9 to 224.8 |
| COc1cc2[nH]c(N(C)Cc3cccc(CN4CCC(O)CC4)c3)nc(=O)c2c(OC)c1OC [Example 39, 2-{[3-(4-Hydroxy-piperidin-1-ylmethyl)-benzyl]-methyl-amino}-5,6,7-trimethoxy-1H-quinazolin-4-one] | 97.5 to 104.7 |
| COc1cc2[nH]c(N(C)Cc3cccc(CN4CCCC4)c3)nc(=O)c2c(OC)c1OC [Example 46, 5,6,7-Trimethoxy-2-[methyl-(3-pyrrolidin-1-ylmethyl-benzyl)-amino]-1H-quinazolin-4-one] | 127 to 129.9 |
| COc1cc2[nH]c(N(C)Cc3ccc(OCCCN(C)C)cc3)nc(=O)c2c(OC)c1OC [Example 48, 2-{[4-(3-Dimethylamino-propoxy)-benzyl]-methyl-amino}-5,6,7-trimethoxy-1H-quinazolin-4-one] | 108 to 111 |
| COc1cc2[nH]c(N(C)Cc3cccc(/N=C(\C)N(C)C)c3)nc(=O)c2c(C#N)c1OC [Example 53, N′-(3-{[(5-Cyano-6,7-dimethoxy-4-oxo-1,4-dihydro-quinazolin-2-yl)-methyl-amino]-methyl}-phenyl)-N,N-dimethyl-acetamide] | 222.1 to 226.9 |
| COCCN(C)C(C)c1cccc(CN(C)c2nc(=O)c3c(C)c(OC)c(OC)cc3[nH]2)c1 (stereo not shown) [Example 54, 6,7-Dimedthoxy-2-[(3-{1-[(2-methoxy-ethyl)-methyl-amino]-ethyl}-benzyl)-methyl-amino]-5-methyl-1H-quinazolin-4-one] | 114.5 to 116.9 |
| COc1cc2[nH]c(N(C)Cc3cccc(CN(C)C)c3)nc(=O)c2c(C)c1OC [Example 56, 2-[(3-Dimethylaminomethyl-benzyl)-methyl-amino]-6,7-dimethoxy-5-methyl-1H-quinazolin-4-one] | 174.9 to 176 |
| COc1cc2[nH]c(N(C)Cc3cccc(N4C(=O)CN(C)C4=O)c3)nc(=O)c2c(C)c1OC [Example 60, 3-(3-{[(6,7-Dimethoxy-5-methyl-4-oxo-1,4-dihydro-quinazolin-2-yl)-methyl-amino]-methyl-}-phenyl)-1-methyl-imidazolidine-2,4-dione] | 209.3 to 210.8 |
| CNC(C)c1cccc(CN(C)c2nc(=O)c3c(OC)c(OC)c(OC)cc3[nH]2)c1 (stereo not shown) [Example 63, 5,6,7-Trimethoxy-2-{methyl-[3-(1-methylamino-ethyl)-benzyl]-amino}-1H-quinazolin-4-one] | 131.8 to 134.4 |
| CNC(C)c1cccc(CN(C)c2nc(=O)c3c(C)c(OC)c(OC)cc3[nH]2)c1 (stereo not shown) [Example 64, 6,7-Dimethoxy-5-methyl-2-{methyl[3-(1-methylamino-ethyl)-benzyl]-amino}-1H-quinazolin-4-one] | 161.6 to 164.1 |
| CCCN(C)Cc1cccc(CN(C)c2nc(=O)c3c(C)c(OC)c(OC)cc3[nH]2)c1 [Example 68, 6,7-Dimethoxy-5-methyl-2-(methyl-{3-[(methyl-propyl-amino)-methyl]-benzyl}-amino)-1H-quinazolin-4-one] | 128.1 to 129.1 |

Now from value to molecule:

| melting point [°C] | SMILES |
| --- | --- |
| 230.8 to 232.5 | COc1cc2[nH]c(N(C)Cc3cccc(N4C[C@@H](O)CC4=O)c3)nc(=O)c2c(C)c1OC [Example 27, 2-{[3-((S)-4-Hydroxy-2-oxo-pyrrolidin-1-yl)-benzyl]-methyl-amino}-6,7-dimethoxy-5-methyl-1H-quinazolin-4-one] |
| 168.9 to 169.8 | CNCCOc1ccc(CN(C)c2nc(=O)c3c(C)c(OC)c(OC)cc3[nH]2)cc1OC [Example 29, 6,7-Dimethoxy-2-{[3-methoxy-4-(2-methylamino-ethoxy)-benzyl]-methyl-amino}-5-methyl-1H-quinazolin-4-one] |
| 142 to 145 | CCN(CCO)Cc1ccc(CN(C)c2nc(=O)c3c(C)c(OC)c(OC)cc3[nH]2)cc1 [Example 30, 2-[(4-{[Ethyl-(2-hydroxy-ethyl)-amino]-methyl}-benzyl)-methyl-amino]-6,7-dimethoxy-5-methyl-1H-quinazolin-4-one] |
| 120 to 122.4 | CCN(CCOC)Cc1ccc(CN(C)c2nc(=O)c3c(OC)c(OC)c(OC)cc3[nH]2)cc1 [Example 32, 2-[(4-{[Ethyl(2-methoxy-ethyl)-amino]-methyl}-benzyl)-methyl-amino]-5,6,7-trimethoxy-1H-quinazolin-4-one] |
| 151.2 to 152.9 | COc1cc2[nH]c(N(C)Cc3cccc(CN4CCC(OC)C4)c3)nc(=O)c2c(C)c1OC (stereo not shown) [Example 37, 6,7-Dimetrhoxy-2-{[3-(3-methoxy-pyrrolidin-1-ylmethyl)-benzyl]-methyl-amino}-5-methyl-1H-quinazolin-4-one] |
| 159.2 to 159.6 | COc1cc2[nH]c(N(C)Cc3cccc(CN4CCC(O)CC4)c3)nc(=O)c2c(C)c1OC [Example 40, 2-{[3-(4-Hydroxy-piperidin-1-ylmethyl)-benzyl]-methyl-amino}-6,7-dimethoxy-5-methyl-1H-quinazolin-4-one] |
| 133.9 to 134.7 | CCNCc1cccc(CN(C)c2nc(=O)c3c(OC)c(OC)c(OC)cc3[nH]2)c1 [Example 43, 2-[(3-Ethylaminomethyl-benzyl)-methyl-amino]-5,6,7-trimethoxy-1H-quinazolin-4-one] |
| 165.5 to 166.5 | COc1cc2[nH]c(N(C)Cc3ccc4c(c3)CN(C)C4)nc(=O)c2c(OC)c1OC [Example 45, 5,6,7-Trimethoxy-2-[methyl-(2-methyl-2,3-dihydro-1H-isoindol-5-ylmethyl)-amino]-1H-quinazolin-4-one] |
| 131.3 to 133.1 | COc1cc2[nH]c(N(C)Cc3cccc(CN4CCC4)c3)nc(=O)c2c(OC)c1OC [Example 47, 2-[(3-Azetidin-1-ylmethyl-benzyl)-methyl-amino]-5,6,7-trimethoxy-1H-quinazolin-4-one] |
| 148 to 149.8 | COc1cc2[nH]c(N(C)Cc3cccc(CN4CCC(O)C4)c3)nc(=O)c2c(C)c1OC (stereo not shown) [Example 49, 2-{[3-(3-Hydroxy-pyrrolidin-1-ylmethyl)-benzyl]-methyl-amino}-6,7-dimethoxy-5-methyl-1H-quinazolin-4-one] |
| 200.2 to 204.4 | COc1cc2[nH]c(N(C)Cc3cccc(N=C4N(C)CCN4C)c3)nc(=O)c2c(C)c1OC [Example 50, 2-{[3-(1,3-Dimethyl-imidazolidin-2-ylidenmeamino)-benzyl]-methyl-amino}-6,7-dimethoxy-5-methyl-1H-quinazoline-4-one] |
| 174.3 to 176.4 | COc1cc2[nH]c(N(C)Cc3cccc(CN4CCC(O)C4)c3)nc(=O)c2c(OC)c1OC (stereo not shown) [Example 51, 2-{[3-(3-Hydroxy-pyrrolidin-1-ylmethyl)-benzyl]-methyl-amino}-5,6,7-trimethoxy-1H-quinazolin-4-one] |
| 118.1 to 120.8 | CNCC(=O)N(C)C(C)c1cccc(CN(C)c2nc(=O)c3c(C)c(OC)c(OC)cc3[nH]2)c1 (stereo not shown) [Example 52, N-[1-(3-{[(6,7-Dimethoxy-5-methyl-4-oxo-1,4-dihydro-quinazolin-2-yl)-methyl-amino]-methyl}-phenyl)-ethyl]-N-methyl-2-methylamino-acetamide] |
| 137 to 140.1 | COc1cc2[nH]c(N(C)Cc3cccc(C(C)N(C)C)c3)nc(=O)c2c(C)c1OC (stereo not shown) [Example 61, 2-{[3-(1-Dimethylamino-ethyl)-benzyl]-methyl-amino}-6,7-dimethoxy-5-methyl-1H-quinazolin-4-one] |
| 122.6 to 125.5 | COc1cc2[nH]c(N(C)Cc3cccc(C(C)N(C)C)c3)nc(=O)c2c(OC)c1OC (stereo not shown) [Example 62, 2-{[3-(1-Dimethylamino-ethyl)-benzyl]-methyl-amino}-5,6,7-trimethoxy-1H-quinazolin-4-one] |
| 217.8 to 219.2 | COc1cc2[nH]c(N(C)Cc3cccc(N4C(=O)CC(C)C4=O)c3)nc(=O)c2c(C)c1OC (stereo not shown) [Example 65, 1-(3-{[(6,7-Dimethoxy-5-methyl-4-oxo-1,4-dihydro-quinazolin-2-yl)-methyl-amino]-methyl}-phenyl)-3-methyl-pyrrolidine-2,5-dione] |
| 144.5 to 147.6 | COc1cc2[nH]c(N(C)Cc3cccc(CNC4CC4)c3)nc(=O)c2c(C)c1OC [Example 66, 2-[(3-Cyclopropylaminomethyl-benzyl)-methyl-amino]-6,7-dimethoxy-5-methyl-1H-quinazolin-4-one] |
| 143.3 to 144.4 | COc1cc2[nH]c(N(C)Cc3cccc(CNC(C)C)c3)nc(=O)c2c(C)c1OC [Example 67, 2-{[3-(Isopropylamino-methyl)-benzyl]-methyl-amino}-6,7-dimethoxy-5-methyl-1H-quinazolin-4-one] |
| 142.5 to 142.9 | CNCc1cccc(CNc2nc(=O)c3c(C)c(OC)c(OC)cc3[nH]2)c1 [Example 69, 6,7-Dimethoxy-5-methyl-2-(3-methylaminomethyl-benzylamino)-1H-quinazolin-4-one] |
